Laboratory results as given in the supplement of paper PMC10733146.

Assays:
Assay in all cases: viability relative to DMSO control (fraction); higher = less drug effect (more viable cells)
Conditions in all cases: 48 h
[1] = tested on: primary AML patient cells (S017)
How it was run: (§1)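 Compounds were pre-plated at five concentrations, one well each, in 384-well plates, and primary mononuclear tumour cells were plated on them at 4 × 10^4 cells per well. The cells, fresh or cryopreserved, had been Ficoll-isolated from blood or bone marrow or taken from processed lymph node. After 48 h at 37 °C and 5% CO2 in RPMI-1640 with penicillin/streptomycin, L-glutamine and human serum, viability was read as CellTiter-Glo luminescence relative to the median of 16 inner DMSO wells.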

[2] = tested on: primary AML patient cells (S085)
How it was run: as §1

[3] = tested on: primary AML patient cells (S071)
How it was run: as §1

[4] = tested on: primary AML patient cells (S081)
How it was run: as §1

[5] = tested on: primary AML patient cells (S025)
How it was run: as §1

[6] = tested on: primary AML patient cells (S002)
How it was run: as §1

[7] = tested on: primary AML patient cells (S021)
How it was run: as §1

[8] = tested on: primary AML patient cells (S011)
How it was run: as §1

[9] = tested on: primary AML patient cells (S019)
How it was run: as §1

[10] = tested on: primary CLL patient cells (S043)
How it was run: as §1

[11] = tested on: primary BL patient cells (S005)
How it was run: as §1

[12] = tested on: primary AML patient cells (S060)
How it was run: as §1

[13] = tested on: primary B-PLL patient cells (S016)
How it was run: as §1

[14] = tested on: primary ALL patient cells (S088)
How it was run: as §1

`COc1cccc2c1C(=O)c1c(O)c3c(c(O)c1C2=O)C[C@@](O)(C(C)=O)C[C@@H]3O[C@H]1C[C@H](N)[C@H](O)[C@H](C)O1` [Daunorubicin] was tested, and the viability ([1]; 0.0016 µM) was 1.1, the viability ([1]; 0.008 µM) was 1.13 and the viability ([1]; 0.04 µM) was 1.07. The viability ([1]; 0.2 µM) was 0.745, the viability ([1]; 1 µM) was 0.0449 and the viability ([2]; 0.0016 µM) was 1.27. For the same molecule, the viability ([2]; 0.008 µM) was 0.865, the viability ([2]; 0.04 µM) was 0.312 and the viability ([2]; 0.2 µM) was 0.164. The viability ([2]; 1 µM) was 0.0173, the viability ([3]; 0.0016 µM) was 1.04 and the viability ([3]; 0.008 µM) was 0.272. It also gave a viability ([3]; 0.04 µM) of 0.128, a viability ([3]; 0.2 µM) of 0.118 and a viability ([3]; 1 µM) of 0.095. For the same molecule, the viability ([4]; 0.0016 µM) was 1.07, the viability ([4]; 0.008 µM) was 1.16 and the viability ([4]; 0.04 µM) was 1.15. For the same molecule, the viability ([4]; 0.2 µM) was 1.2, the viability ([4]; 1 µM) was 0.0266 and the viability ([5]; 0.0016 µM) was 1.03. The viability ([5]; 0.008 µM) was 0.784, the viability ([5]; 0.04 µM) was 0.453 and the viability ([5]; 0.2 µM) was 0.431. For the same molecule, the viability ([5]; 1 µM) was 0.0369, the viability ([6]; 0.0016 µM) was 1.04 and the viability ([6]; 0.008 µM) was 0.983. For the same molecule, the viability ([6]; 0.04 µM) was 0.505, the viability ([6]; 0.2 µM) was 0.323 and the viability ([6]; 1 µM) was 0.241. It also gave a viability ([7]; 0.0016 µM) of 1.09, a viability ([7]; 0.008 µM) of 0.972 and a viability ([7]; 0.04 µM) of 0.424. For the same molecule, the viability ([7]; 0.2 µM) was 0.216, the viability ([7]; 1 µM) was 0.145 and the viability ([8]; 0.0016 µM) was 1.02. For the same molecule, the viability ([8]; 0.008 µM) was 1.07, the viability ([8]; 0.04 µM) was 0.409 and the viability ([8]; 0.2 µM) was 0.0898. The viability ([8]; 1 µM) was 0.0206, the viability ([9]; 0.0016 µM) was 1.38 and the viability ([9]; 0.008 µM) was 1.33. The viability ([9]; 0.04 µM) was 0.56, the viability ([9]; 0.2 µM) was 0.395 and the viability ([9]; 1 µM) was 0.102. The viability ([10]; 0.0016 µM) was 1.11, the viability ([10]; 0.008 µM) was 1.12 and the viability ([10]; 0.04 µM) was 0.834. It also gave a viability ([10]; 0.2 µM) of 0.33, a viability ([10]; 1 µM) of 0.0261 and a viability ([11]; 0.0016 µM) of 1.06. The viability ([11]; 0.008 µM) was 1.09, the viability ([11]; 0.04 µM) was 1.02 and the viability ([11]; 0.2 µM) was 0.929. It also gave a viability ([11]; 1 µM) of 0.716, a viability ([12]; 0.0016 µM) of 1.16 and a viability ([12]; 0.008 µM) of 1.14. It also gave a viability ([12]; 0.04 µM) of 1.07, a viability ([12]; 0.2 µM) of 1.14 and a viability ([12]; 1 µM) of 0.0333. It also gave a viability ([13]; 0.0016 µM) of 1.21, a viability ([13]; 0.008 µM) of 0.74 and a viability ([13]; 0.04 µM) of 0.0721. For the same molecule, the viability ([13]; 0.2 µM) was 0.0359, the viability ([13]; 1 µM) was 0.0137 and the viability ([14]; 0.0016 µM) was 1.13. The viability ([14]; 0.008 µM) was 0.849, the viability ([14]; 0.04 µM) was 0.235 and the viability ([14]; 0.2 µM) was 0.0841. The viability ([14]; 1 µM) was 0.0273.

`CCc1nc(C(N)=O)c(Nc2ccc(N3CCC(N4CCN(C)CC4)CC3)c(OC)c2)nc1NC1CCOCC1` [Gilteritinib] was tested, and the viability ([1]; 0.024 µM) was 0.987, the viability ([1]; 0.12 µM) was 1.09 and the viability ([1]; 0.6 µM) was 0.606. The viability ([1]; 3 µM) was 0.5, the viability ([1]; 15 µM) was 0.47 and the viability ([2]; 0.024 µM) was 1.02. It also gave a viability ([2]; 0.12 µM) of 0.98, a viability ([2]; 0.6 µM) of 0.741 and a viability ([2]; 3 µM) of 0.781. The viability ([2]; 15 µM) was 0.756, the viability ([3]; 0.024 µM) was 0.564 and the viability ([3]; 0.12 µM) was 0.457. It also gave a viability ([3]; 0.6 µM) of 0.465, a viability ([3]; 3 µM) of 0.551 and a viability ([3]; 15 µM) of 0.878. It also gave a viability ([4]; 0.024 µM) of 0.968, a viability ([4]; 0.12 µM) of 0.969 and a viability ([4]; 0.6 µM) of 0.947. For the same molecule, the viability ([4]; 3 µM) was 0.708, the viability ([4]; 15 µM) was 0.599 and the viability ([5]; 0.024 µM) was 0.888. The viability ([5]; 0.12 µM) was 0.862, the viability ([5]; 0.6 µM) was 0.751 and the viability ([5]; 3 µM) was 0.791. It also gave a viability ([5]; 15 µM) of 0.485, a viability ([6]; 0.024 µM) of 1.13 and a viability ([6]; 0.12 µM) of 1.01. The viability ([6]; 0.6 µM) was 0.766, the viability ([6]; 3 µM) was 0.592 and the viability ([6]; 15 µM) was 0.456. For the same molecule, the viability ([7]; 0.024 µM) was 1.04, the viability ([7]; 0.12 µM) was 1.07 and the viability ([7]; 0.6 µM) was 0.72. For the same molecule, the viability ([7]; 3 µM) was 0.754, the viability ([7]; 15 µM) was 0.736 and the viability ([8]; 0.024 µM) was 0.834. It also gave a viability ([8]; 0.12 µM) of 0.755, a viability ([8]; 0.6 µM) of 0.617 and a viability ([8]; 3 µM) of 0.841. It also gave a viability ([8]; 15 µM) of 0.796, a viability ([9]; 0.024 µM) of 1.12 and a viability ([9]; 0.12 µM) of 1.04. The viability ([9]; 0.6 µM) was 0.76, the viability ([9]; 3 µM) was 0.818 and the viability ([9]; 15 µM) was 0.771. It also gave a viability ([10]; 0.024 µM) of 1.04, a viability ([10]; 0.12 µM) of 1.01 and a viability ([10]; 0.6 µM) of 0.7. The viability ([10]; 3 µM) was 0.519, the viability ([10]; 15 µM) was 0.393 and the viability ([11]; 0.024 µM) was 0.957. It also gave a viability ([11]; 0.12 µM) of 0.96, a viability ([11]; 0.6 µM) of 0.739 and a viability ([11]; 3 µM) of 0.667. For the same molecule, the viability ([11]; 15 µM) was 0.536, the viability ([12]; 0.024 µM) was 1 and the viability ([12]; 0.12 µM) was 1.06. The viability ([12]; 0.6 µM) was 0.965, the viability ([12]; 3 µM) was 0.663 and the viability ([12]; 15 µM) was 0.428. The viability ([13]; 0.024 µM) was 0.818, the viability ([13]; 0.12 µM) was 0.819 and the viability ([13]; 0.6 µM) was 0.875. The viability ([13]; 3 µM) was 0.911, the viability ([13]; 15 µM) was 0.654 and the viability ([14]; 0.024 µM) was 0.698. For the same molecule, the viability ([14]; 0.12 µM) was 0.545, the viability ([14]; 0.6 µM) was 0.388 and the viability ([14]; 3 µM) was 0.414. It also gave a viability ([14]; 15 µM) of 0.131.
